Measured values reported in the OligoGym collection.
Bases are written 5' to 3'; sugars and linkages follow in the same order, as letters with counts (s phosphorothioate, o phosphodiester; PS: all linkages phosphorothioate). The collection does not say whether C is 5-methylated. l = locked nucleic acid (LNA); d = 2'-deoxy (DNA)

Molecular target: Tau
Assay: rat primary cortical neurons, FLIPR, 25 uM ASO

First: CAGATTCCCCAACTCACA (sugars l2 d14 l2, PS)
Second: CAGATTTAATTCTCACT (sugars l4 d9 l4, PS)
The calcium oscillation score of the first is lower: 71.5 % of control for the first, 77.7 % of control for the second.

Going from “CAGATTTTACTTCCACCT (sugars l2 d14 l2, PS)” to “CAGCACACAGGCAGCCACTG (sugars l3 d14 l3, PS)”, the calcium oscillation score falls from 44.7 % of control to 23.8 % of control.

Going from “CAGCATTTCCATTTCATC (sugars l2 d13 l3, PS)” to CAGCCACTGTTGCCAC (sugars l2 d12 l2, PS), the calcium oscillation score falls from 52.7 % of control to 51.2 % of control.

First: CAGCCATTTTCCATATA (sugars l3 d12 l2, PS)
Second: CAGCCTACTTTATTCCC (sugars l2 d13 l2, PS)
The calcium oscillation score of the first is lower: 47.6 % of control for the first, 79.2 % of control for the second.

First: CAGCCTACTTTATTCCCT (sugars l2 d14 l2, PS)
Second: CAGCGTGATCTTCCAT (sugars l3 d10 l3, PS)
The calcium oscillation score of the first is higher: 82.2 % of control for the first, 13.4 % of control for the second.

Compared with “CAGCTAAGACCCTCAGGTTT (sugars l3 d14 l3, PS)”, CAGCTAGCGTGGCGAG (sugars l3 d10 l3, PS) is lower in calcium oscillation score: 38.5 % of control for the first, 0 % of control for the second.

Going from “CAGCTAGTGGTGCCACCTGA (sugars l3 d14 l3, PS)” to CAGCTATACTATTTCA (sugars l4 d10 l2, PS), the calcium oscillation score rises from 16.5 % of control to 60.2 % of control.

Going from “CAGCTCTTCCATAAGCAGGG (sugars l3 d14 l3, PS)” to CAGCTTCGTCTTCCAG (sugars l3 d10 l3, PS), the calcium oscillation score rises from 60.6 % of control to 75.9 % of control.

Compared with “CAGCTTGTGGGTTTCAATCT (sugars l3 d14 l3, PS)”, CAGGAGTTGTAAGC (sugars l3 d8 l3, PS) is higher in calcium oscillation score: 0 % of control for the first, 77.5 % of control for the second.

Going from CAGGCGCGAGCAGCGG (sugars l3 d10 l3, PS) to “CAGGGACCCAATCTTCGACT (sugars l3 d14 l3, PS)”, the calcium oscillation score falls from 49.5 % of control to 9.04 % of control.

Going from “CAGGGACGTGGGTGATATTG (sugars l3 d14 l3, PS)” to “CAGGGAGGCAGACACCTCGT (sugars l3 d14 l3, PS)”, the calcium oscillation score rises from 0 % of control to 50.9 % of control.

Compared with “CAGGTATCCAGCCATATTTC (sugars l3 d14 l3, PS)”, “CAGGTCTGGCATGGGCACGG (sugars l3 d14 l3, PS)” is lower in calcium oscillation score: 27.5 % of control for the first, 0 % of control for the second.

Going from “CAGGTTAAGTGATTAACCAA (sugars l3 d14 l3, PS)” to CAGTAACATCCATTTC (sugars l4 d8 l4, PS), the calcium oscillation score rises from 17.4 % of control to 87.6 % of control.

Going from “CAGTAACATCCATTTCT (sugars l4 d11 l2, PS)” to CAGTCCCGTCTTTGCT (sugars l3 d10 l3, PS), the calcium oscillation score falls from 86.2 % of control to 0 % of control.

Going from CAGTCTTTATTAACAC (sugars l4 d8 l4, PS) to “CAGTCTTTATTAACACT (sugars l3 d10 l4, PS)”, the calcium oscillation score falls from 54 % of control to 50.7 % of control.

First: CAGTTACCATCATACAT (sugars l3 d10 l4, PS)
Second: CATAAATGACTATACTTATT (sugars l3 d14 l3, PS)
The calcium oscillation score of the first is lower: 89 % of control for the first, 94.7 % of control for the second.

Going from “CATAATCCTACCACCAG (sugars l2 d12 l3, PS)” to “CATAGCACTTACTACTT (sugars l4 d10 l3, PS)”, the calcium oscillation score rises from 61.3 % of control to 84.1 % of control.

Going from CATAGTCACTCTGGTG (sugars l3 d10 l3, PS) to “CATATTCTTCCCTTAATA (sugars l3 d13 l2, PS)”, the calcium oscillation score rises from 1.9 % of control to 81.1 % of control.

Compared with “CATATTCTTCCCTTAATAA (sugars l3 d13 l3, PS)”, CATCAAATCCATGCAT (sugars l4 d8 l4, PS) is higher in calcium oscillation score: 68 % of control for the first, 76.7 % of control for the second.

Compared with “CATCAACACCTTTTAATTCA (sugars l2 d14 l4, PS)”, “CATCAATTTGGAAAGATGAA (sugars l3 d14 l3, PS)” is lower in calcium oscillation score: 98.4 % of control for the first, 62.5 % of control for the second.

First: CATCACCAAGTCCCAAA (sugars l2 d11 l4, PS)
Second: CATCACTTCGAACTCC (sugars l3 d10 l3, PS)
The calcium oscillation score of the first is lower: 81 % of control for the first, ≥ 200 % of control for the second.

Compared with “CATCAGCCTTCATCACA (sugars l4 d11 l2, PS)”, “CATCAGTCTTATCTCCC (sugars l2 d13 l2, PS)” is lower in calcium oscillation score: 91.8 % of control for the first, 54.7 % of control for the second.

Compared with “CATCCACTTAGACACTC (sugars l4 d11 l2, PS)”, “CATCCATTTTCTGACTC (sugars l4 d11 l2, PS)” is higher in calcium oscillation score: 43.8 % of control for the first, 52 % of control for the second.

Going from “CATCCATTTTCTGACTCT (sugars l4 d12 l2, PS)” to “CATCCTAAGTCAACCAC (sugars l3 d11 l3, PS)”, the calcium oscillation score rises from 42.4 % of control to 72.7 % of control.

Going from CATCGCTTCCAGTC (sugars l3 d8 l3, PS) to CATCGCTTCCAGTCCC (sugars l3 d10 l3, PS), the calcium oscillation score falls from 116 % of control to 39.1 % of control.

Compared with “CATCTAAACACCTCAATCCA (sugars l2 d16 l2, PS)”, “CATCTACTTTCTGTCACC (sugars l2 d14 l2, PS)” is lower in calcium oscillation score: 72.6 % of control for the first, 63.4 % of control for the second.

Going from “CATCTCTCTAGACATCT (sugars l4 d11 l2, PS)” to “CATCTCTCTAGACATCTC (sugars l2 d13 l3, PS)”, the calcium oscillation score falls from 79.4 % of control to 64.6 % of control.

Going from “CATCTTAATTCATTTAATTC (sugars l4 d12 l4, PS)” to “CATCTTCCTTTAGTTTT (sugars l4 d10 l3, PS)”, the calcium oscillation score falls from 84.1 % of control to 50.9 % of control.

First: CATGACATTTTAAACCC (sugars l3 d10 l4, PS)
Second: CATGAGCACTAACTCTAAGT (sugars l3 d14 l3, PS)
The calcium oscillation score of the first is higher: 69.2 % of control for the first, 47.6 % of control for the second.

Going from CATGATCTTAGGCT (sugars l3 d8 l3, PS) to CATGATCTTAGGCTG (sugars l3 d9 l3, PS), the calcium oscillation score rises from 25.3 % of control to 46 % of control.

First: CATGATCTTAGGCTGG (sugars l3 d10 l3, PS)
Second: CATGATTAATTACACCC (sugars l3 d11 l3, PS)
The calcium oscillation score of the first is lower: 7.83 % of control for the first, 35.5 % of control for the second.

CATGATTGTGGGCTT (sugars l3 d9 l3, PS) and CATGATTGTGGGCTTA (sugars l3 d10 l3, PS) are the same in calcium oscillation score: 0 % of control for the first, 0 % of control for the second.

Compared with “CATGCAGTTTATTCCTGGCA (sugars l3 d14 l3, PS)”, CATGCTTACACACCAC (sugars l2 d10 l4, PS) is higher in calcium oscillation score: 6.04 % of control for the first, 82.9 % of control for the second.

Compared with “CATGCTTACACACCACAC (sugars l2 d13 l3, PS)”, CATGTCGATGCTGC (sugars l3 d8 l3, PS) is lower in calcium oscillation score: 73.5 % of control for the first, 30.5 % of control for the second.

Compared with CATGTCGATGCTGCC (sugars l3 d9 l3, PS), CATGTCGATGCTGCCG (sugars l3 d10 l3, PS) is lower in calcium oscillation score: 89.5 % of control for the first, 67.3 % of control for the second.

First: CATTAACCCTTGATCATATT (sugars l3 d14 l3, PS)
Second: CATTATCATCCATTCTG (sugars l3 d10 l4, PS)
The calcium oscillation score of the first is lower: 36.3 % of control for the first, 47.3 % of control for the second.

First: CATTATTCTTTTTTTTTCCA (sugars l4 d14 l2, PS)
Second: CATTCCCTCCAGAACCATCA (sugars l3 d14 l3, PS)
The calcium oscillation score of the first is higher: 43.3 % of control for the first, 34.2 % of control for the second.

Compared with CATTCTATACTTCAGA (sugars l3 d9 l4, PS), CATTGGAACTGAGCAC (sugars l3 d10 l3, PS) is lower in calcium oscillation score: 79 % of control for the first, 8.33 % of control for the second.

First: CATTTACCAATTATCTTTAA (sugars l4 d12 l4, PS)
Second: CATTTCTGGAAGGTTCTTTC (sugars l3 d14 l3, PS)
The calcium oscillation score of the first is higher: 72 % of control for the first, 23.9 % of control for the second.

CATTTTACTAAAACGC (sugars l4 d8 l4, PS) was tested, and the calcium oscillation score was 91.6 % of control.
